Source: patent US20050209157A1, “Short bioactive peptides and methods for their use” (priority 2001, published 2005)
Where two headings read alike, the source gives them in different places. No end group written: not given here.

Assays:
[1] = system: yeast (Saccharomyces cerevisiae); assay: Antimicrobial assay I, yeast assay in RPMI 1640; format: cell-based; settings: RPMI 1640 media
[2] = system: S. pneumoniae C718; assay: Antimicrobial assays II, NCCLS broth microdilution MIC; format: cell-based, Streptococcus pneumoniae; settings: mean of three
[3] = system: Pseudomonas aeruginosa ATCC 9027; assay: Antimicrobial assay I, MIC by OD measurement; format: cell-based; settings: 37° C. for 24 hours, absorbance 620 nm
[4] = system: Staphylococcus aureus ATCC 6538; assay: Antimicrobial assay I, MIC by OD measurement; format: cell-based; settings: 37° C. for 24 hours, absorbance 620 nm
[5] = system: WI38; settings: MTT, 24 hours with peptide; normal fibroblast line
[6] = system: S. aureus (MRSA); format: cell-based, Staphylococcus aureus; settings: mean of three; 16 to 20 hours at 35° C.
[7] = system: P. aeruginosa H774; format: cell-based, Pseudomonas aeruginosa; settings: P. aeruginosa H744; nalidixic acid + peptide at ¼ MIC; 0.5 or less = synergy
In short: (§1)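 FIC index, computed as 0.25 plus the ratio of combination to single-agent antibiotic MIC, defines synergy when 0.5 or below. Peptide fixed at one quarter MIC while chloramphenicol or nalidixic acid was serially diluted two-fold; antibiotic-alone MICs served as baselines.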

[8] = system: P. aeruginosa; format: cell-based, Pseudomonas aeruginosa; settings: P. aeruginosa H744; MIC of nalidixic acid with peptide at ¼ MIC
In short: as §1

[9] = system: P. aeruginosa H374; format: cell-based, Pseudomonas aeruginosa; settings: for MIC Cm-comb.: MIC of chloramphenicol with peptide at ¼ MIC; for MIC Nal-comb.: MIC of nalidixic acid with peptide at ¼ MIC; for FIC Index: 0.5 or less = synergy
In short: as §1

[10] = system: S. pyogenes M76; assay: Antimicrobial assays II, NCCLS broth microdilution MIC; format: cell-based, Streptococcus pyogenes; settings: mean of three; 16 to 20 hours at 35° C.
[11] = system: collagen; assay: Collagen stimulation, ELISA on fibroblast cell lines; format: cell-based
Description: Fibroblast cell lines were cultured under standard conditions and assayed for collagen and laminin using an ELISA system manufactured by Panvera (Madison, Wis.). Antibodies for collagen and laminin manufactured by Takara Shuzo Co., Ltd Japan. […] The other three peptides tested neither stimulated nor inhibited production (i.e. no effect was observed).

[12] = in vitro; format: cell-based, human; settings: human, human red blood cells, pH 7, hemolytic assay, concentration at 50% hemolysis, 1 hour at 37° C.; read-out: LD50
[13] = system: S. pyogenes ATCC19615; assay: Antimicrobial assays II, NCCLS broth microdilution MIC; format: cell-based, Streptococcus pyogenes; settings: mean of three, in µg/mL
[14] = in vitro; settings: human, WI38 normal lung fibroblast cells, LD50 WI38, WI38 normal lung fibroblast line, MTT, 24 hours with peptide
[15] = system: SW480; assay: Anti-cancer assay, MTT, LD50; format: cell-based; settings: SW480 colon adenocarcinoma line, 24 hours with peptide
Text: (§2) Numbers are LD50 values (μg/mL).

[16] = system: BMKC; assay: Anti-cancer assay, MTT, LD50; format: cell-based; settings: BMKC cloned melanoma line, 24 hours with peptide
Text: as §2

[17] = system: H1299; assay: Anti-cancer assay, MTT, LD50; format: cell-based; settings: 24 hours with peptide, lung large cell carcinoma
Text: as §2

[18] = system: MCF7; assay: Anti-cancer assay, MTT, LD50; format: cell-based; settings: MCF7 breast adenocarcinoma line, MTT, 24 hours with peptide
Text: as §2

[19] = system: PC3; assay: Anti-cancer assay, MTT, LD50; format: cell-based; settings: 24 hours with peptide, prostate adenocarcinoma
Text: as §2

[20] = system: HeLaS3; assay: Anti-cancer assay, MTT, LD50; format: cell-based; settings: 24 hours with peptide, cervical carcinoma
Text: as §2

[21] = chloramphenicol + peptide at ¼ MIC
[22] = nalidixic acid + peptide at ¼ MIC, FIC=0.25+MIC comb/MIC alone

Substance	yeast (MIC or MFC) [1]	S. pneumoniae MIC [2] [µg/mL]	paerug9027 (MIC) [3]	staph6538 (MIC) [4]	WI38 LD50 [5] [µg/mL]	S. aureus (MRSA) MIC [6] [µg/mL]	FIC Index [7]	MIC Nal-comb. [8] [µg/mL]	MIC Cm-comb. [9] [µg/mL]	MIC Nal-comb. [9] [µg/mL]	FIC Index [9, 21]	FIC Index [9, 22]	S. pyogenes M76 MIC [10] [µg/mL]	CC50 at 24 h [14] [µg/mL]	LD50 SW480 [15]	LD50 BMKC [16]	H1299 LD50 [17] [µg/mL]	LD50 MCF7 [18] [µg/mL]	PC3 LD50 [19] [µg/mL]	HeLaS3 LD50 [20]	further results
FALKALKKLKKALKKAL-NH2 [P153]	100 µg/mL	32	25 µg/mL	5 µg/mL	130	16	1.25	624	8	5000	0.75	1.25	2	130	61 µg/mL	165 µg/mL	50	64	97	140 µg/mL	Collagen stimulation [11]: 120%; HC50 at 1 h [12]: 800 µg/mL; S. pyogenes MIC [13]: 2
FAVGLRAIKRALKKLRRGVRKVAKDL-NH2 [P157, reference compound]	> (> indicates greater than 200 μg/mL)	128	> (> indicates greater than 200 μg/mL)	200 µg/mL	500	32	1.25	624	8	2500	0.75	0.75	8	500	530 µg/mL	600 µg/mL	315	240	375	> (> indicates greater than 1000)	HC50 at 1 h [12]: 850 µg/mL; S. pyogenes MIC [13]: 8
MPKWKVFKKIEKVGRNIRNGIVKAGPAIAVLGEAKALG-NH2 [P12, reference compound]	> (> indicates greater than 200 μg/mL)		100 µg/mL	> (> indicates greater than 200 μg/mL)	950		0.75	312	16	2500	1.25	0.75		950	> (> indicates greater than 1000)	> (> indicates greater than 1000)	720	540	630	> (> indicates greater than 1000)	Collagen stimulation [11]: 0%
